Assay results: patent publication US20120302636A1, “METHOD OF TREATING A DISORDER ASSOCIATED WITH MTP” (priority 2009, published 2012)

Experiments:
LDL-C levels = assay: Example 4: 8-week study in hyperlipidemia, efficacy; format: in vivo, human
Experimental: (§1) One hundred five Japanese patients with hyperlipidemia (LDL-C between 140 and 220 mg/dL; TG≦400 mg/dL) participated in the study. […] For the efficacy analysis, 95 subjects were observed (0.5 mg BID: 25 subjects, 1 mg BID: 24 subjects, 2 mg BID: 22 subjects, 4 mg BID: 24 subjects).
The objective was to administer the compound of formula (I) orally to hyperlipidemic patients at a dose of 0.5, 1, 2, or 4 mg as capsules twice daily after the morning (e.g., breakfast) and evening meal (e.g., dinner) for eight weeks in order to explore a dose range in which the compound of formula (I) reduced LDL-C levels. In addition, the effects on lipid metabolism, safety, and pharmacokinetics of the compound of formula (I) were evaluated.

[1] = Example 4: pharmacokinetics; format: in vivo, human
Experimental: as §1

serum lipid levels [2] = assay: Example 7: serum lipid levels; format: in vivo, human
Experimental: Postprandial levels of lipid parameters after administration of the compound of formula (I) were evaluated using the change from preceding timepoint. […] Intraday changes and changes from pretreatment baseline also indicate that the absorption of TG, VLDL-TG, and chylomicron-TG were delayed compared to placebo. This delayed absorption is consistent with a previous pharmacology study in healthy male Japanese subjects. The postprandial results were interpreted with caution as the delay in absorption can impact the calculation regarding the magnitude of the postprandial change in triglycerides. However, the suppression of the expected increases in postprandial TG, VLDL-TG, and chylomicron-TG, which is indicative of MTP inhibition, clearly supports the mechanism of action of the compound of formula (I). The VLDL-TG changes observed in this study are consistent with previous studies (Examples 2 and 6) where the compound of formula (I) was administered for up to 14 days in healthy or hypertriglyceridemic Caucasian and Japanese male subjects. In general, the compound of formula (I) levels were also low or non-quantifiable in these studies. […] Therefore, the compound of formula (I) is not believed to directly affect the liver.

serum lipid levels [3] = assay: Example 3: serum lipid levels; format: in vivo, human; conditions: active groups
Experimental: Eighteen healthy Japanese males 20 to 35 years of age with a BMI of 18.5 to 25 kg/m^2 participated in the study. The subjects were divided into two dosing groups and within each dosing group, the subjects were divided as follows: 6 subjects received the compound of formula (I) and 3 subjects received placebo. The dosing regimen was oral administration of a tablet twice a day for 14 days after breakfast and dinner (specifically, within 180 minutes of the commencement of eating), in which each tablet contained 1 mg (2 mg/day) or 2 mg (4 mg/day).

[4] = Example 1: repeated oral dose study of capsules, safety
Experimental: The subjects were divided into two dosing groups, and within each dosing group, the subjects were divided as follows: 6 subjects received the compound of formula (1) and 3 subjects received placebo. […] Subjects were in a fed condition prior to administration of each capsule.
Each active capsule contained a filling solution and a gelatin solution. The filling solution comprised the compound of formula (I) (5 mg), propylene glycol esters of fatty acids, and dehydrated ethanol. The gelatin solution comprised purified water, gelatin, and anhydrized liquid sorbitol. The filling solution and gelatin solution were prepared individually and combined to form a soft capsule. The placebo capsules were prepared in a similar manner except that the filling solution contained only propylene glycol esters of fatty acids and dehydrated ethanol.

[5] = Example 7: ascending dose study in obese subjects, pharmacokinetics
Experimental: This example involved a clinical study of the compound of formula (I), which was a randomized, double-blind, placebo-controlled, ascending dose study to evaluate the safety, tolerability and pharmacokinetics/pharmacodynamics of the compound of formula (I) tablets administered twice daily for two weeks in obese subjects.
The subjects were separated into four arms of nine (one with ten) test subjects (which were administered the compound of formula (I)) and three placebo subjects.

serum lipid levels [6] = assay: Example 1: serum lipid levels; format: in vivo, human
Experimental: In this study, lipids related to lipoprotein metabolism were determined as serum lipid test items. In the active group, postprandial elevations for RLP-C, TG, LDL-TG, HDL-TG, CM-TG, and ApoB48 (reference data) were inhibited, while LDL-C, HDL-C, TC, and ApoB values decreased. The manifestation of those effects required 3 to 7 days. […] This effect is attributable to the inhibition of diet-derived lipid absorption based on the MTP inhibitory activity of the compound of formula (I) in the small intestine.

[7] = Example 9: safety and tolerability; format: in vivo, human
Experimental: The study enrolled 16 obese male subjects (18-65 years of age (inclusive), with a body mass index (BMI) >30.0 kg/m^2 and <40.0 kg/m^2) who participated in two treatment periods. During Period 1, 8 subjects were randomized to receive 3.5 mg of the compound of formula (I), and 8 subjects were randomized to receive placebo. The compound of formula (I) or placebo was administered twice daily (BID), 30 minutes after the start of breakfast and dinner, for 10 days. All subjects were discharged from the clinic at the end of Period 1 for a 9±2 day discharge period. Subjects then returned for treatment during Period 2, in which (i) the group previously receiving the compound of formula (I) now received placebo, and (ii) the group previously receiving placebo now received the compound of formula (I), in accordance with the protocol described above.

[8] = Example 3: pharmacokinetics; format: in vivo, human; conditions: all dose groups

CCOC(=O)C(COC(=O)Cc1ccc(NC(=O)c2ccccc2-c2ccc(C(F)(F)F)cc2)c(C(=O)N(C)C)c1)(C(=O)OCC)c1ccccc1 [compound of formula (I), diethyl 2-((2-(3-(dimethylcarbamoyl)-4-(4′-(trifiuoromethyl)biphenyl-2-ylcarboxamido)phenyl)acetoxy)methyl)-2-phenyl malonate]
mean percent change in LDL-C levels at Week 8 from baseline (LDL-C levels; 0.5 mg BID): −4.3% | mean percent change in LDL-C levels at Week 8 from baseline (LDL-C levels; 1 mg BID): −4.5% | mean percent change in LDL-C levels at Week 8 from baseline (LDL-C levels; 2 mg BID): −12.2% | mean percent change in LDL-C levels at Week 8 from baseline (LDL-C levels; 4 mg BID): −12.3% | ApoB and ApoE levels (LDL-C levels; 2 and 4 mg BID): decreased | TC levels (LDL-C levels; 2 and 4 mg BID, throughout treatment): decreased | insulin, hemoglobin Alc, adiponectin, or leptin level (LDL-C levels; in vivo): did not affect | ApoB48, ApoA-I, ApoA-II, ApoC-II, and ApoC-III levels (LDL-C levels; treatment period): no significant changes | time course of TG or HDL-C levels (LDL-C levels; treatment period): no definite trend or dose correlation | plasma compound of formula (I) concentrations ([1]; 0.5 and 1 mg BID, not quantifiable): < 0.3 ng/mL | plasma compound of formula (I) concentrations ([1]; 2 and 4 mg BID): not quantifiable, except in a few sporadic cases | postprandial estimates for TG, VLDL-TG, and chylomicron-TG (serum lipid levels [2]; following breakfast and dinner): substantially lower when compared with placebo | decrease in HDL-C levels (serum lipid levels [2]; in vivo): not as pronounced as LDL-C, nor was it statistically significant | pretreatment baseline adjusted values of TC, LDL-C, LDL-TG, ApoB, and phospholipids (serum lipid levels [2]; in vivo): significant reduction | postprandial elevation in TG, HDL-TG, LDL-TG, Midband-TG, and CM-TG (serum lipid levels [3]): inhibited a postprandial elevation | number of adverse events ([4]; 5 mg group): 12 | subjects with adverse events (incidence) ([4]; 5 mg group): 83% | vitamins A and E ([4]; 15 mg BID group): Decreased | number of adverse events ([4]; 15 mg group): 32 | subjects with adverse events (incidence) ([4]; 15 mg group): 100% | subjects with diarrhea ([4]; 15 mg group, of 6 subjects): 6 subjects | death or serious adverse events ([4]; 5 or 15 mg BID after meals, 14 days, capsules): neither death nor serious adverse events were reported | incidence of ALT increased ([4]; active group): 17% | incidence of abdominal discomfort ([4]; active group): 25% | incidence of anorexia ([4]; active group): 42% | incidence of diarrhea ([4]; active group): 67% | incidence of gastrointestinal disorders (SOC) ([4]; active group): 75% | incidence of investigations (SOC) ([4]; active group): 33% | incidence of metabolism and nutrition disorders (SOC) ([4]; active group): 42% | incidence of moderate abdominal discomfort ([4]; active group): 8% | incidence of moderate diarrhea ([4]; active group): 58% | incidence of moderate feeling queasy ([4]; active group): 8% | incidence of moderate stomach discomfort ([4]; active group): 8% | incidence of stomach discomfort ([4]; active group): 58% | subjects with adverse events (incidence) ([4]; active group (5 and 15 mg BID), 12 subjects): 92% | number of adverse events ([4]; active group, 12 subjects): 44 | tolerable dosage ([4]; long-term treatment in outpatients): 5 mg BID | doses at which diarrhea occurred ([4]; repeated BID administration): ≥ 5 mg | plasma concentrations of the compound of formula (I) ([5]; 1 mg, Day 14): not quantifiable | time up to which concentrations were quantifiable ([5]; 2.5 mg and 3.5 mg groups, Day 14): up to 5 hr | subjects with quantifiable concentrations ([5]; 2.5 mg, Day 14): 2 of 8 subjects | subjects with quantifiable concentrations ([5]; 3.5 mg, Day 14): 7 of 8 subjects | subjects with quantifiable concentrations ([5]; 5 mg, Day 14): 2 of 3 subjects | time for which concentrations were quantifiable ([5]; 5 mg, Day 14): at least 6 hr | plasma concentrations of the compound of formula (I) ([5]; 1 to 5 mg, Day 1): generally below the limit of quantization | Cmax and AUC0-τ dose proportionality ([5]; 2.5 to 5 mg): approximately dose proportional | systemic exposure ([5]; BID for 14 days): negligible | parent/metabolite ratio for AUC0-τ ([5]; all dose levels): less than 0.01 | parent/metabolite ratio for Cmax ([5]; all dose levels): less than 0.03 | oral clearance ([5]; quantifiable dose groups): high oral clearance | LDL-C, HDL-C, TC, and ApoB values (serum lipid levels [6]; active group): decreased | postprandial elevations for RLP-C, TG, LDL-TG, HDL-TG, CM-TG, and ApoB48 (serum lipid levels [6]; active group): inhibited | increase in postprandial values for RLP-C, TG, LDL-TG, HDL-TG, and CM-TG (serum lipid levels [6]; after the first dose on Day 1): inhibited an increase | deaths or serious adverse events ([7]; 3.5 mg BID, 10 days): no deaths or serious adverse events | subjects with at least one treatment-emergent adverse event ([7]; 3.5 mg BID, 10 days): 53.3% | safety and tolerability ([7]; 3.5 mg BID, 10 days, fed conditions): safe and well-tolerated | hematology, biochemistry, urinalysis, vital sign (including weight), ECG changes from baseline ([7]; in vivo): No clinically meaningful mean changes | plasma concentrations of the compound of formula (I) [8]: below the limit of quantization
